pEC50, pIC50: −log10 of the molar value. Positions of bridges follow the written chain, without caps; N, C: chain ends. Non-standard residues stand in square brackets, D forms with d. Residues, ends and D or L forms follow the SMILES beside them. S5 = C=CCCC[C@](C)(N)C(=O)O
Key:
BAX [1] = biological target: T1, BAX (Homo sapiens, UniProt Q07812); experiment: Competitive fluorescence polarization assay, FITC-BIM SAHBA2 from the BAX trigger site; format: binding; conditions: for pIC50: FITC-BIM SAHBA2 50 nM, BAX 500 nM, read-out: IC50, competition of FITC-BIM SAHBA2 from BAX
T1 construct: with serial dilutions of full-length BAX, BCL-XLΔC, MCL-1ΔNΔC, BFL-1/A1ΔC; made in house; host or cells: Escherichia coli
Description: (§1) Fluorescence polarization assays (FPA) were performed as previously described (Gavathiotis et al., 2012). Firstly, direct binding isotherms were generated by incubating FITC-BIM SAHBA2 (50 nM) with serial dilutions of full-length BAX, BCL-XLΔC, MCL-1ΔNΔC, BFL-1/A1ΔC and fluorescence polarization was measured at 20 minutes on a F200 PRO microplate reader (TECAN). Subsequently, in competition assays, a serial dilution of small molecule or acetylated BIM SAHBA2 (Ac-BIM SAHB) was combined with FITC-BIM SAHBA2 (50 nM), followed by the addition of recombinant protein at ˜EC75 concentration, as determined by the direct binding assay (BAX: 500 nM; BCL-XLΔC, MCL-1ΔNΔC, BFL-1/A1ΔC: 200 nM).
(§2) A competitive fluorescence polarization assay that evaluates the capacity of compounds to compete a fluorescein-labeled stapled peptide of the BIM BH3 helix, FITC-BIM SAHBA2, from the BAX trigger site, was used to determine the binding potency (Gavathiotis et al., 2008; Gavathiotis et al., 2012).

[2] = tested on: anti-apoptotic BCL-2 family proteins (BCL-2, BCL-XL, MCL-1); experiment: Pull down assay with biotinylated BTSA1, anti-apoptotic BCL-2 family proteins; format: binding, human
Description: OCI-AML3, MEFs and HPB-ALL cytosolic and mitochondrial lysates were generated by Dounce Homogenization. Cells were lysed by Dounce homogenizer in lysis buffer (LB) containing 10 mM Tris, pH 7.5, 1 mM EGTA, 200 mM sucrose plus Complete Protease Inhibitors. The cell lysates were centrifuged at 700×g for 10 min to remove unbroken cells and nuclei. The supernatants were centrifuged at 12000× g for 10 min at 4° C. and the resulting pellet was collected as the mitochondrial fraction and supernatant as the cytosolic fraction. The mitochondrial fraction was resuspended in LB+1% CHAPS to solubilize proteins. […] Biotin capture was achieved by incubation with high capacity streptavidin agarose (50 μL 50% slurry/reaction—Pierce) for 1 hour at room temperature. The streptavidin beads were washed (3×) at room temperature with 1×PBS. Cellular BAX bound to the biotinylated-BTSA1 was eluted by boiling for 20 minutes in LDS buffer and then subjected to BAX (2772S, Cell Signaling), BCL-2 (BD Biosciences Cat. 610539), BCL-XL (Cell Signaling Cat. 2764) and MCL-1 (Cell Signaling Cat. 4572) western blot analysis.

BFL-1/A1 = experiment: Competitive fluorescence polarization assay, FITC-BIM SAHBA2 bound to BFL-1/A1; format: binding, Human; conditions: BTSA1 at 50 μM
Description: as §1, §2

MCL-1 = experiment: Competitive fluorescence polarization assay, FITC-BIM SAHBA2 bound to MCL-1; format: binding, Human; conditions: BTSA1 at 50 μM
Description: as §1, §2

BCL-XL = biological target: T2, BCL-XL (Homo sapiens, UniProt Q07817); experiment: Competitive fluorescence polarization assay, FITC-BIM SAHBA2 bound to BCL-XL; format: binding; conditions: BTSA1 at 50 μM
T2 construct: BCL-XLΔC, MCL-1ΔNΔC, BFL-1/A1ΔC: 200 nM; made in house; host or cells: Escherichia coli
Description: as §1, §2

OCI-AML3 leukemia cells = experiment: Synergistic cytotoxicity with BCL-2 inhibitors in OCI-AML3 leukemia cells; format: cell-based, human; conditions: for pIC50: Homo sapiens, OCI-AML-3, 24 h, 24 h treatment; for synergy with ABT-199 (venetoclax) / synergy with ABT-263 (navitoclax): non-cytotoxic doses, 24 h
Description: Viability assays were performed in at least triplicate and the data normalized to vehicle-treated control wells. IC50 values were determined by nonlinear regression analysis using Prism software (Graphpad).

THP-1 and OCI-AML3 cells = experiment: Viability assay of AML cells treated with venetoclax or BTSA1 alone or in combination; format: cell-based, human; conditions: BTSA1 at ~EC10 dose, 24 hrs
From the text: Moreover, the synergistic effect of these two drugs is observed within hours, consistent with their kinetics of mitochondrial apoptosis activation.

BAX [3] = biological target: T1, BAX; experiment: Direct fluorescence polarization binding of fluorescein-labeled BTSA1 to BAX; conditions: fluorescein-labeled compound

T1 sequence (Q07812 whole entry): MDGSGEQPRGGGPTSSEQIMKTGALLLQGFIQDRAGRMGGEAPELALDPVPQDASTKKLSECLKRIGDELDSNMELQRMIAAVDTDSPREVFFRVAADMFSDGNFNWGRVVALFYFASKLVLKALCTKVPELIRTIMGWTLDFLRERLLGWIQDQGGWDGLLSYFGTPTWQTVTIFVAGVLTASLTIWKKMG
T2 sequence (Q07817 1-212 limits assumed): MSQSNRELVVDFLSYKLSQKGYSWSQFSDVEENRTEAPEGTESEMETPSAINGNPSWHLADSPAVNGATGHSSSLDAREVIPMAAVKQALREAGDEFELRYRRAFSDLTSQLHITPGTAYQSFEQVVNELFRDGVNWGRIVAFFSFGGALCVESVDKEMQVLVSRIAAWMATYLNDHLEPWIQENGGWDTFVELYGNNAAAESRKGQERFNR

O=C(CCCC[C@H]1SCC2NC(=O)NC21)NCCCOCCOCCOCCCNC(=O)c1ccc(-c2csc(N3N=C(c4ccccc4)C(=NNc4nccs4)C3=O)n2)cc1 (stereo partly drawn) [biotinylated BTSA1, N-(15-oxo-19-((4R)-2-oxohexahydro-1H-thieno[3,4-d]imidazol-4-yl)-4,7,10-trioxa-14-azanonadecyl)-4-(2-(5-oxo-3-phenyl-4-(2-(thiazol-2-yl)hydrazono)-4,5-dihydro-1Hpyrazol-1-yl)thiazol-4-yl)benzamide]
reduction in binding capacity to BAX relative to BTSA1 (BAX [1]): ten-fold
pIC50 (BAX [1]): 5.70
pull down of anti-apoptotic BCL-2 family proteins [2]: failed to pull down

CC[C@H](C)[C@H](NC(=O)[C@H](Cc1c[nH]c2ccccc12)NC(=O)[C@@H](NC(=O)[C@H](CCC(=O)O)NC(C)=O)[C@@H](C)CC)C(=O)N[C@@H](C)C(=O)N[C@@H](CCC(N)=O)C(=O)N[C@@H](CCC(=O)O)C(=O)N[C@@H](CC(C)C)C(=O)N[C@@H](CCCNC(=N)N)C(=O)N[C@@]1(C)CCCC=CCCC[C@@](C)(C(=O)N[C@@H](Cc2ccccc2)C(=O)N[C@@H](CC(N)=O)C(=O)N[C@@H](C)C(=O)N[C@@H](Cc2ccc(O)cc2)C(=O)N[C@@H](Cc2ccc(O)cc2)C(=O)N[C@@H](C)C(N)=O)NC(=O)[C@H](CC(=O)O)NC(=O)CNC(=O)[C@H]([C@@H](C)CC)NC1=O [BIM SAHBA2] (Ac-EIWIAQELR[S5]IGD[S5]FNAYYA-NH2; staple 10-14)
pIC50 (BAX [1]): 6.55
capacity to compete FITC-BIM SAHBA2 from BFL-1/A1 (BFL-1/A1): effectively competed
capacity to compete FITC-BIM SAHBA2 from MCL-1 (MCL-1): effectively competed
capacity to compete FITC-BIM SAHBA2 from BCL-XL (BCL-XL): effectively competed

CC1=NN(c2nc(-c3ccccc3)cs2)C(=O)C1=NNc1nccs1 [BTSA2]
reduction in binding capacity to BAX relative to BTSA1 (BAX [1]): ~10 fold
pIC50 (BAX [1]): 5.43

CC1(C)CCC(CN2CCN(c3ccc(C(=O)NS(=O)(=O)c4ccc(NCC5CCOCC5)c([N+](=O)[O-])c4)c(Oc4cnc5[nH]ccc5c4)c3)CC2)=C(c2ccc(Cl)cc2)C1 [ABT-199, 4-(4-{[2-(4-Chlorophenyl)-4,4-dimethyl-1-cyclohexen-1-yl]methyl}-1-piperazinyl)-N-({3-nitro-4-[(tetrahydro-2H-pyran-4-ylmethyl)amino]phenyl}sulfonyl)-2-(1H-pyrrolo[2,3-b]pyridin-5-yloxy)benzamide]
pIC50 (OCI-AML3 leukemia cells; BAX activator concentration 0.625 μM): 5.41
pIC50 (OCI-AML3 leukemia cells; BAX activator concentration 1.25 μM): 5.32
pIC50 (OCI-AML3 leukemia cells; BAX activator concentration […]): 5.44
EC50 of venetoclax in combination with BTSA1 (THP-1 and OCI-AML3 cells): low nM concentration

O=C1/C(=N\Nc2nccs2)C(c2ccccc2)=NN1c1nc(-c2ccc(F)cc2)cs1 [GAV2-008]
synergy with ABT-199 (venetoclax) (OCI-AML3 leukemia cells): significant synergistic cytotoxicity
synergy with ABT-263 (navitoclax) (OCI-AML3 leukemia cells): significant synergistic cytotoxicity

COc1ccc(C2=NN(c3nc(-c4ccccc4)cs3)C(=O)/C2=N\Nc2nccs2)cc1 [GAV2-010]
synergy with ABT-199 (venetoclax) (OCI-AML3 leukemia cells): significant synergistic cytotoxicity

O=C(NCCCOCCOCCOCCCNC(=S)Nc1ccc2c(c1)C(=O)OC21c2ccc(O)cc2Oc2cc(O)ccc21)c1ccc(-c2csc(N3N=C(c4ccccc4)C(=NNc4nccs4)C3=O)n2)cc1 [fluorescein-labeled BTSA1, N-(1-((3′,6′-dihydroxy-3-oxo-3H-spiro[isobenzofuran-1,9′-xanthen]-5-yl)amino)-1-thioxo-6,9,12-trioxa-2-azapentadecan-15-yl)-4-(2-(5-oxo-3-phenyl-4-(2-(thiazol-2-yl)hydrazineylidene)-4,5-dihydro-1H-pyrazol-1-yl)thiazol-4-yl)-benzamide]
pEC50 (BAX [3]): 6.84

Cc1nc(N/N=C2\C(=O)N(c3nc(-c4ccccc4)cs3)N=C2c2ccccc2)sc1C [GAV2-006]
synergy with ABT-199 (venetoclax) (OCI-AML3 leukemia cells): significant synergistic cytotoxicity
synergy with ABT-263 (navitoclax) (OCI-AML3 leukemia cells): significant synergistic cytotoxicity
